Measured values published in US20250215039A1, “NUCLEOSIDES FOR TREATING CANCER” (PRIMEFOUR THERAPEUTICS, INC., priority 2022, published 2025).
Where two headings read alike, the source gives them in different places.

Tested on: cancer cell lines
Assay: Cancer cell proliferation activity (CellTiterGlo, 72 h)
Type: cell-based
Conditions: 72 h, 72 h, read-out: IC50
Method in brief: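 Cells seeded overnight at 37 °C, then dosed with compound at 0.1% final DMSO and incubated 72 h at 37 °C (5% or 10% CO2 by medium).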

For C[C@]1(CO)O[C@@H](n2cnc3c(N)nc(F)nc32)C[C@@H]1O [Cpd. No. 126, (2R,3S,5R)-5-(6-amino-2-fluoro-9H-purin-9-yl)-2-(hydroxymethyl)-2-methyltetrahydrofuran-3-ol], the IC50 (5637 cell line (bladder)) was 1 µM, the IC50 (CLS439 cell line (bladder)) was over 50 µM and the IC50 (HS729 cell line (muscle)) was 1.36 µM. The IC50 (HSS78T cell line) was 0.82 µM, the IC50 (JAR cell line (placenta)) was 0.46 µM and the IC50 (SKMELS cell line) was over 50 µM. For the same compound, the IC50 (Homo sapiens, 22Rv1, 72 h, 22RV1 cell line (prostate)) was 1.57 µM, the IC50 (Homo sapiens, 786-0, 72 h, 786O cell line (kidney)) was 0.52 µM and the IC50 (Homo sapiens, A204, 72 h, A204 cell line (muscle)) was 0.29 µM. For the same compound, the IC50 (Homo sapiens, A549, 72 h, A549 cell line) was over 50 µM, the IC50 (Homo sapiens, A673, 72 h, A673 cell line (bone)) was 2.31 µM and the IC50 (Homo sapiens, A2780, 72 h, A2780 cell line (ovary)) was 1.26 µM. It also gave an IC50 (Homo sapiens, A-375, 72 h, A375 cell line (skin)) of 0.26 µM, an IC50 (Homo sapiens, A-431, 72 h, A431 cell line (skin)) of 0.34 µM and an IC50 (Homo sapiens, ACHN, ACHN cell line (kidney)) of 3.3 µM. It also gave an IC50 (Homo sapiens, ASPC1, 72 h, ASPC1 cell line (pancreas)) of 0.42 µM, an IC50 (Homo sapiens, BT-20, 72 h, BT20 cell line (breast)) of 0.52 µM and an IC50 (Homo sapiens, BXPC-3, 72 h, BXPC3 cell line (pancreas)) of over 50 µM. It also gave an IC50 (Homo sapiens, C-33-A, C33A cell line (cervical)) of 1.79 µM, an IC50 (Homo sapiens, CAKI-1, 72 h, CAKI1 cell line (kidney)) of 0.03 µM and an IC50 (Homo sapiens, COLO 205, 72 h, COLO205 cell line (colon)) of 1.3 µM. For the same compound, the IC50 (Homo sapiens, COLO-678, 72 h, COLO678 cell line (colon)) was 5.81 µM, the IC50 (Homo sapiens, Ca-Ski, CASKI cell line (cervical)) was 0.26 µM and the IC50 (Homo sapiens, Caco-2, 72 h, CACO2 cell line (colon)) was 0.72 µM. The IC50 (Homo sapiens, Calu-6, 72 h, CALU6 cell line (lung)) was 0.61 µM, the IC50 (Homo sapiens, DLD-1, 72 h, DLD1 cell line (colon)) was 1.98 µM and the IC50 (Homo sapiens, DU-145, 72 h, DU145 cell line (prostate)) was 0.12 µM. It also gave an IC50 (Homo sapiens, EFO-21, 72 h, EFO21 cell line (ovary)) of 0.57 µM, an IC50 (Homo sapiens, EJ-28, 72 h, EJ28 cell line (bladder)) of 0.56 µM and an IC50 (Homo sapiens, Granta-519, 72 h, GRANTA-519 cell line (hematological)) of 1.03 µM. It also gave an IC50 (Homo sapiens, HCT-15, 72 h, HCT15 cell line (colon)) of 1.81 µM, an IC50 (Homo sapiens, HCT-116, 72 h, HCT116 cell line (colon)) of 0.93 µM and an IC50 (Homo sapiens, HEK293, 72 h, HEK293 cell line (kidney)) of 0.74 µM. For the same compound, the IC50 (Homo sapiens, HL-60, 72 h, HL-60 cell line (hematological)) was 0.52 µM, the IC50 (Homo sapiens, HT-29, 72 h, HT29 cell line (colon)) was 0.42 µM and the IC50 (Homo sapiens, HT-1080, 72 h, HT1080 cell line (connective tissue)) was over 50 µM. The IC50 (Homo sapiens, HeLa, HELA cell line (cervical)) was 0.55 µM, the IC50 (Homo sapiens, HepG2, 72 h, HEPG2 cell line (liver)) was 0.79 µM and the IC50 (Homo sapiens, IGROV-1, 72 h, IGROV1 cell line (ovary)) was 0.43 µM. It also gave an IC50 (Homo sapiens, IMR-90, 72 h, IMR.90 cell line) of 0.91 µM, an IC50 (Homo sapiens, J82, 72 h, J82 cell line (bladder)) of 0.54 µM and an IC50 (Homo sapiens, JEG-3, 72 h, JEG3 cell line (placenta)) of 0.37 µM. For the same compound, the IC50 (Homo sapiens, JIMT-1, 72 h, JIMT1 cell line (breast)) was 0.07 µM, the IC50 (Homo sapiens, K562, 72 h, K-562 cell line (hematological)) was over 50 µM and the IC50 (Homo sapiens, Kasumi 1, 72 h, KASUMI-1 cell line (hematological)) was 0.06 µM. The IC50 (Homo sapiens, L-363, 72 h, L-363 cell line (hematological)) was 0.69 µM, the IC50 (Homo sapiens, LoVo, LOVO cell line (colon)) was 0.26 µM and the IC50 (Homo sapiens, MCF7, 72 h, MCF7 cell line (breast)) was over 50 µM. It also gave an IC50 (Homo sapiens, MDA-MB-231, 72 h, MDAMB231 cell line (breast)) of 2.69 µM, an IC50 (Homo sapiens, MDA-MB-435, 72 h, MDAMB435 cell line (skin)) of 1.25 µM and an IC50 (Homo sapiens, MDA-MB-436, 72 h, MDAMB436 cell line (breast)) of 0.25 µM. For the same compound, the IC50 (Homo sapiens, MDA-MB-468, 72 h, MDAMB468 cell line (breast)) was 0.79 µM, the IC50 (Homo sapiens, MG-63, 72 h, MG63 cell line (bone)) was over 50 µM and the IC50 (Homo sapiens, MHH-ES-1, 72 h, MHHES1 cell line (bone)) was 0.86 µM. The IC50 (Homo sapiens, MIA PaCa-2, 72 h, MIAPACA2 cell line (pancreas)) was over 50 µM, the IC50 (Homo sapiens, MINO, MINO cell line (hematological)) was 0.12 µM and the IC50 (Homo sapiens, MV4-11, 72 h, MV4-11 cell line (hematological)) was 0.07 µM. The IC50 (Homo sapiens, NCI-H23, 72 h, NCI-H23 cell line (lung)) was 0.48 µM, the IC50 (Homo sapiens, NCI-H82, 72 h, NCIH82 cell line (lung)) was 0.61 µM and the IC50 (Homo sapiens, NCI-H292, 72 h, NCIH292 cell line (lung)) was 5.31 µM. For the same compound, the IC50 (Homo sapiens, NCI-H460, 72 h, NCIH460 cell line (lung)) was 0.62 µM, the IC50 (Homo sapiens, OVCAR-3, 72 h, OVCAR3 cell line (ovary)) was 0.14 µM and the IC50 (Homo sapiens, OVCAR-4, 72 h, OVCAR4 cell line (ovary)) was 0.74 µM. For the same compound, the IC50 (Homo sapiens, PANC-1, 72 h, PANC1 cell line (pancreas)) was over 50 µM, the IC50 (Homo sapiens, PC-3, 72 h, PC3 cell line (prostate)) was 1.09 µM and the IC50 (Homo sapiens, PLC-PRF-5, 72 h, PLCPRF5 cell line (liver)) was 2.16 µM. For the same compound, the IC50 (Homo sapiens, Panc1005, 72 h, PANC1005 cell line (pancreas)) was 0.24 µM, the IC50 (Homo sapiens, RD, RD cell line (muscle)) was 2.32 µM and the IC50 (Homo sapiens, Ramos, RAMOS cell line (hematological)) was 0.56 µM. For the same compound, the IC50 (Homo sapiens, SAOS-2, 72 h, SAOS2 cell line (bone)) was 0.27 µM, the IC50 (Homo sapiens, SF-268, 72 h, SF268 cell line (brain)) was over 50 µM and the IC50 (Homo sapiens, SF-295, 72 h, SF295 cell line (brain)) was 1.94 µM. The IC50 (Homo sapiens, SK-BR-3, 72 h, SKBR3 cell line (breast)) was 0.1 µM, the IC50 (Homo sapiens, SK-HEP1, 72 h, SKHEP1 cell line (liver)) was 4.78 µM and the IC50 (Homo sapiens, SK-LMS-1, 72 h, SKLMS1 cell line (uterus)) was 0.6 µM. The IC50 (Homo sapiens, SK-MEL-28, 72 h, SKMEL28 cell line (skin)) was 1.18 µM, the IC50 (Homo sapiens, SK-N-AS, SKNAS cell line (brain)) was 0.78 µM and the IC50 (Homo sapiens, SK-N-SH, SKNSH cell line (brain)) was 0.64 µM. It also gave an IC50 (Homo sapiens, SK-OV-3, 72 h, SKOV3 cell line (ovary)) of 1.03 µM, an IC50 (Homo sapiens, SNB-75, 72 h, SNB75 cell line (brain)) of 2.6 µM and an IC50 (Homo sapiens, SU-DHL10, 72 h, SU-DHL-10 cell line (hematological)) of 0.46 µM. For the same compound, the IC50 (Homo sapiens, SU-DHL-6, 72 h, SU-DHL-6 cell line (hematological)) was 0.36 µM, the IC50 (Homo sapiens, SW-620, 72 h, SW620 cell line (colon)) was 0.57 µM and the IC50 (Homo sapiens, T-24, 72 h, T24 cell line (bladder)) was 0.92 µM. It also gave an IC50 (Homo sapiens, TE-671, 72 h, TE671 cell line (muscle)) of 3.14 µM, an IC50 (Homo sapiens, THP-1, 72 h, THP-1 cell line (hematological)) of 0.11 µM and an IC50 (Homo sapiens, U2OS, U2OS cell line (bone)) of 1.12 µM. It also gave an IC50 (Homo sapiens, U-87 MG, U87MG cell line (brain)) of 5.62 µM, an IC50 (Homo sapiens, UMUC3, 72 h, UMUC3 cell line (bladder)) of over 50 µM and an IC50 (Homo sapiens, UO-31, 72 h, UO31 cell line (kidney)) of 0.3 µM. The IC50 (Homo sapiens, WSU-NHL, WSU-NHL cell line (hematological)) was 0.56 µM, the IC50 (MT-3, 72 h, MT3 cell line (breast)) was 0.5 µM and the IC50 (NCI-H358M, NCIH358M cell line (lung)) was 0.3 µM. For the same compound, the IC50 (PBMC, PBMC (hematological)) was 1.99 µM and the IC50 (RD-ES, RDES cell line (bone)) was 0.37 µM.
